Data taken from article PMC11576293, “New series of 4,6-diaryl pyrimidines: facile synthesis and antiproliferative activity as dual EGFR/VEGFR-2 inhibitors” (Frontiers in Chemistry, 2024).

Assays:
Test in all cases: NCI-60 single-dose screen
Assay type in all cases: cell-based
[1] = tested on: HL-60(TB); conditions: Homo sapiens, single dose 10 µM, '-' = no inhibition, read-out: % Growth Inhibition
[2] = tested on: SF-295; conditions: Homo sapiens, single dose 10 µM, '-' = no inhibition, read-out: % Growth Inhibition
How it was run: (§1)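 Single concentration (10 μM) per compound, assayed by the NCI DTP against its 60-line panel covering leukemia, lung, colon, CNS, melanoma, ovarian, renal, prostate and breast cancers.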

[3] = tested on: UO-31; conditions: Homo sapiens, single dose 10 µM, '-' = no inhibition, read-out: % Growth Inhibition
How it was run: as §1

[4] = tested on: SNB-75; conditions: Homo sapiens, single dose 10 µM, '-' = no inhibition, read-out: % Growth Inhibition
How it was run: as §1

[5] = tested on: SW-620; conditions: Homo sapiens, single dose 10 µM, '-' = no inhibition, read-out: % Growth Inhibition
How it was run: as §1

[6] = tested on: SF-539; conditions: Homo sapiens, single dose 10 µM, '-' = no inhibition, read-out: % Growth Inhibition
How it was run: as §1

[7] = tested on: U251; conditions: Homo sapiens, U-251, single dose 10 µM, '-' = no inhibition, read-out: % Growth Inhibition
How it was run: as §1

[8] = tested on: HCT-15; conditions: Homo sapiens, single dose 10 µM, '-' = no inhibition, read-out: % Growth Inhibition
How it was run: as §1

[9] = tested on: BT-549; conditions: Homo sapiens, single dose 10 µM, '-' = no inhibition, read-out: % Growth Inhibition
How it was run: as §1

[10] = tested on: SK-MEL-28; conditions: Homo sapiens, single dose 10 µM, '-' = no inhibition, read-out: % Growth Inhibition
How it was run: as §1

[11] = tested on: NCI-H23; conditions: Homo sapiens, single dose 10 µM, '-' = no inhibition, read-out: % Growth Inhibition
How it was run: as §1

[12] = tested on: A498; conditions: Homo sapiens, single dose 10 µM, '-' = no inhibition, read-out: % Growth Inhibition
How it was run: as §1

[13] = tested on: HOP-92; conditions: Homo sapiens, single dose 10 µM, '-' = no inhibition, read-out: % Growth Inhibition
How it was run: as §1

[14] = tested on: KM12; conditions: Homo sapiens, single dose 10 µM, '-' = no inhibition, read-out: % Growth Inhibition
How it was run: as §1

[15] = tested on: MOLT-4; conditions: Homo sapiens, single dose 10 µM, '-' = no inhibition, read-out: % Growth Inhibition
How it was run: as §1

[16] = tested on: 786-0; conditions: Homo sapiens, single dose 10 µM, '-' = no inhibition, read-out: % Growth Inhibition
How it was run: as §1

[17] = tested on: NCI-H322M; conditions: Homo sapiens, single dose 10 µM, '-' = no inhibition, read-out: % Growth Inhibition
How it was run: as §1

[18] = tested on: UACC-62; conditions: Homo sapiens, single dose 10 µM, '-' = no inhibition, read-out: % Growth Inhibition
How it was run: as §1

[19] = tested on: OVCAR-5; conditions: Homo sapiens, single dose 10 µM, '-' = no inhibition, read-out: % Growth Inhibition
How it was run: as §1

[20] = tested on: OVCAR-3; conditions: Homo sapiens, single dose 10 µM, '-' = no inhibition, read-out: % Growth Inhibition
How it was run: as §1

[21] = tested on: COLO 205; conditions: Homo sapiens, single dose 10 µM, '-' = no inhibition, read-out: % Growth Inhibition
How it was run: as §1

[22] = tested on: LOX IMVI; conditions: Homo sapiens, single dose 10 µM, '-' = no inhibition, read-out: % Growth Inhibition
How it was run: as §1

[23] = tested on: A549/ATCC; conditions: Homo sapiens, single dose 10 µM, '-' = no inhibition, read-out: % Growth Inhibition
How it was run: as §1

[24] = tested on: SK-OV-3; conditions: Homo sapiens, single dose 10 µM, '-' = no inhibition, read-out: % Growth Inhibition
How it was run: as §1

[25] = tested on: UACC-257; conditions: Homo sapiens, single dose 10 µM, '-' = no inhibition, read-out: % Growth Inhibition
How it was run: as §1

[26] = tested on: HOP-62; conditions: Homo sapiens, single dose 10 µM, '-' = no inhibition, read-out: % Growth Inhibition
How it was run: as §1

[27] = tested on: MDA-MB-468; conditions: Homo sapiens, single dose 10 µM, '-' = no inhibition, read-out: % Growth Inhibition
How it was run: as §1

[28] = tested on: MALME-3M; conditions: Homo sapiens, single dose 10 µM, '-' = no inhibition, read-out: % Growth Inhibition
How it was run: as §1

[29] = tested on: NCI-H522; conditions: Homo sapiens, single dose 10 µM, '-' = no inhibition, read-out: % Growth Inhibition
How it was run: as §1

[30] = tested on: TK-10; conditions: Homo sapiens, single dose 10 µM, '-' = no inhibition, read-out: % Growth Inhibition
How it was run: as §1

[31] = tested on: OVCAR-4; conditions: Homo sapiens, single dose 10 µM, '-' = no inhibition, read-out: % Growth Inhibition
How it was run: as §1

[32] = tested on: T-47D; conditions: Homo sapiens, T47D, single dose 10 µM, '-' = no inhibition, read-out: % Growth Inhibition
How it was run: as §1

[33] = tested on: RPMI-8226; conditions: Homo sapiens, single dose 10 µM, '-' = no inhibition, read-out: % Growth Inhibition
How it was run: as §1

[34] = tested on: EKVX; conditions: Homo sapiens, single dose 10 µM, '-' = no inhibition, read-out: % Growth Inhibition
How it was run: as §1

[35] = tested on: NCI-H460; conditions: Homo sapiens, single dose 10 µM, '-' = no inhibition, read-out: % Growth Inhibition
How it was run: as §1

[36] = tested on: IGROV1; conditions: Homo sapiens, IGROV-1, single dose 10 µM, '-' = no inhibition, read-out: % Growth Inhibition
How it was run: as §1

[37] = tested on: SNB-19; conditions: Homo sapiens, single dose 10 µM, '-' = no inhibition, read-out: % Growth Inhibition
How it was run: as §1

[38] = tested on: DU-145; conditions: Homo sapiens, single dose 10 µM, '-' = no inhibition, read-out: % Growth Inhibition
How it was run: as §1

[39] = tested on: RXF 393; conditions: Homo sapiens, single dose 10 µM, '-' = no inhibition, read-out: % Growth Inhibition
How it was run: as §1

[40] = tested on: NCI/ADR-RES; conditions: Homo sapiens, single dose 10 µM, '-' = no inhibition, read-out: % Growth Inhibition
How it was run: as §1

[41] = tested on: SR; conditions: Homo sapiens, single dose 10 µM, '-' = no inhibition, read-out: % Growth Inhibition
How it was run: as §1

[42] = tested on: PC-3; conditions: Homo sapiens, single dose 10 µM, '-' = no inhibition, read-out: % Growth Inhibition
How it was run: as §1

[43] = tested on: ACHN 1; conditions: Homo sapiens, single dose 10 µM, '-' = no inhibition, read-out: % Growth Inhibition
How it was run: as §1

[44] = tested on: MDA-MB231/ATCC; conditions: Homo sapiens, MDA-MB-231, single dose 10 µM, '-' = no inhibition, read-out: % Growth Inhibition
How it was run: as §1

[45] = tested on: HT29; conditions: Homo sapiens, HT-29, single dose 10 µM, '-' = no inhibition, read-out: % Growth Inhibition
How it was run: as §1

[46] = tested on: CAKI-1; conditions: Homo sapiens, single dose 10 µM, '-' = no inhibition, read-out: % Growth Inhibition
How it was run: as §1

[47] = tested on: M14; conditions: Homo sapiens, single dose 10 µM, '-' = no inhibition, read-out: % Growth Inhibition
How it was run: as §1

## COc1ccc(-c2cc(-c3cccc(OC)c3)nc(SC(C)C)n2)cc1 [Compound 19, 2-(Isopropylthio)-6-(3-methoxyphenyl)-4-(4-methoxyphenyl)pyrimidine]
[1]
  inhibition at 10 µM: 22.6%
[2]
  inhibition at 10 µM: 4.16%
[3]
  inhibition at 10 µM: 23.6%
[4]
  inhibition at 10 µM: < 0%
[5]
  inhibition at 10 µM: < 0%
[6]
  inhibition at 10 µM: 0.24%
[7]
  inhibition at 10 µM: 10.2%
[8]
  inhibition at 10 µM: 24.5%
[9]
  inhibition at 10 µM: 6.85%
[10]
  inhibition at 10 µM: < 0%
[11]
  inhibition at 10 µM: 8.76%
[12]
  inhibition at 10 µM: < 0%
[13]
  inhibition at 10 µM: < 0%
[14]
  inhibition at 10 µM: 5.72%
[15]
  inhibition at 10 µM: 23.8%
[16]
  inhibition at 10 µM: 4.09%
[17]
  inhibition at 10 µM: 4.92%
[18]
  inhibition at 10 µM: 25.5%
[19]
  inhibition at 10 µM: 0.61%
[20]
  inhibition at 10 µM: < 0%
[21]
  inhibition at 10 µM: 0.02%
[22]
  inhibition at 10 µM: 6.05%
[23]
  inhibition at 10 µM: 15.9%
[24]
  inhibition at 10 µM: < 0%
[25]
  inhibition at 10 µM: < 0%
[26]
  inhibition at 10 µM: < 0%
[27]
  inhibition at 10 µM: 20.2%
[28]
  inhibition at 10 µM: < 0%
[29]
  inhibition at 10 µM: 21%
[30]
  inhibition at 10 µM: < 0%
[31]
  inhibition at 10 µM: 4.28%
[32]
  inhibition at 10 µM: 24.6%
[33]
  inhibition at 10 µM: 10.1%
[34]
  inhibition at 10 µM: 22.7%
[35]
  inhibition at 10 µM: 2.13%
[36]
  inhibition at 10 µM: < 0%
[37]
  inhibition at 10 µM: 7.53%
[38]
  inhibition at 10 µM: 4.58%
[39]
  inhibition at 10 µM: 18.9%
[40]
  inhibition at 10 µM: 9.86%
[41]
  inhibition at 10 µM: 27.6%
[42]
  inhibition at 10 µM: 17.2%
[43]
  inhibition at 10 µM: < 0%
[44]
  inhibition at 10 µM: 17.3%
[45]
  inhibition at 10 µM: 32.5%
[46]
  inhibition at 10 µM: 24.1%
[47]
  inhibition at 10 µM: < 0%

## C=CCSc1nc(-c2ccc(OC)cc2)cc(-c2cccc(OC)c2)n1 [Compound 20, 2-(Allylthio)-6-(3-methoxyphenyl)-4-(4-methoxyphenyl)pyrimidine]
[1]
  inhibition at 10 µM: 31.3%
[2]
  inhibition at 10 µM: 3.19%
[3]
  inhibition at 10 µM: 13.2%
[4]
  inhibition at 10 µM: < 0%
[5]
  inhibition at 10 µM: < 0%
[6]
  inhibition at 10 µM: < 0%
[7]
  inhibition at 10 µM: < 0%
[8]
  inhibition at 10 µM: 5.58%
[9]
  inhibition at 10 µM: < 0%
[10]
  inhibition at 10 µM: < 0%
[11]
  inhibition at 10 µM: 1.43%
[12]
  inhibition at 10 µM: < 0%
[13]
  inhibition at 10 µM: < 0%
[14]
  inhibition at 10 µM: < 0%
[15]
  inhibition at 10 µM: 12.5%
[16]
  inhibition at 10 µM: < 0%
[17]
  inhibition at 10 µM: < 0%
[18]
  inhibition at 10 µM: 18.8%
[19]
  inhibition at 10 µM: < 0%
[20]
  inhibition at 10 µM: < 0%
[21]
  inhibition at 10 µM: < 0%
[22]
  inhibition at 10 µM: 7.36%
[23]
  inhibition at 10 µM: 1.93%
[24]
  inhibition at 10 µM: < 0%
[25]
  inhibition at 10 µM: < 0%
[26]
  inhibition at 10 µM: < 0%
[27]
  inhibition at 10 µM: 1.99%
[28]
  inhibition at 10 µM: < 0%
[29]
  inhibition at 10 µM: 8.49%
[30]
  inhibition at 10 µM: < 0%
[31]
  inhibition at 10 µM: 5.65%
[32]
  inhibition at 10 µM: 21.5%
[33]
  inhibition at 10 µM: 4.53%
[34]
  inhibition at 10 µM: 4.8%
[35]
  inhibition at 10 µM: < 0%
[36]
  inhibition at 10 µM: < 0%
[37]
  inhibition at 10 µM: 5.77%
[38]
  inhibition at 10 µM: < 0%
[39]
  inhibition at 10 µM: < 0%
[40]
  inhibition at 10 µM: < 0%
[41]
  inhibition at 10 µM: 13%
[42]
  inhibition at 10 µM: < 0%
[43]
  inhibition at 10 µM: < 0%
[44]
  inhibition at 10 µM: < 0%
[45]
  inhibition at 10 µM: 8.08%
[46]
  inhibition at 10 µM: 7.19%
[47]
  inhibition at 10 µM: 4.9%
